Measured values: patent publication US8338472B2, “Hexahydrocyclopentyl[F]indazole carboxamides and derivatives thereof as selective glucocorticoid receptor modulators” (Merck Sharp & Dohme Corp., priority 2008, dated 2012)
Where two headings read alike, the source gives them in different places.

Tests used:
Glucocorticoid Receptor = biological target: T1, Glucocorticoid Receptor (Homo sapiens, UniProt P04150); test: Trans-Activation Modulation of Glucocorticoid Receptor (GRAMMER), MMTV-LUC reporter gene in A549 cells; assay type: cell-based; settings: Table 1; for Emax: A549, A549 cells, Emax relative to 300 nM dexamethasone, read-out: Transactivation A549 Cells GRAMMER Emax; for EC50: inflection point, A549 cells, read-out: Transactivation A549 Cells GRAMMER IP
T1 construct: These cells express large amount of the GR and are very responsive to GC treatment; endogenous in cells; host or cells: A549 cells transiently transfected with the MMTV-LUC reporter
T1 sequence (P04150 1-777): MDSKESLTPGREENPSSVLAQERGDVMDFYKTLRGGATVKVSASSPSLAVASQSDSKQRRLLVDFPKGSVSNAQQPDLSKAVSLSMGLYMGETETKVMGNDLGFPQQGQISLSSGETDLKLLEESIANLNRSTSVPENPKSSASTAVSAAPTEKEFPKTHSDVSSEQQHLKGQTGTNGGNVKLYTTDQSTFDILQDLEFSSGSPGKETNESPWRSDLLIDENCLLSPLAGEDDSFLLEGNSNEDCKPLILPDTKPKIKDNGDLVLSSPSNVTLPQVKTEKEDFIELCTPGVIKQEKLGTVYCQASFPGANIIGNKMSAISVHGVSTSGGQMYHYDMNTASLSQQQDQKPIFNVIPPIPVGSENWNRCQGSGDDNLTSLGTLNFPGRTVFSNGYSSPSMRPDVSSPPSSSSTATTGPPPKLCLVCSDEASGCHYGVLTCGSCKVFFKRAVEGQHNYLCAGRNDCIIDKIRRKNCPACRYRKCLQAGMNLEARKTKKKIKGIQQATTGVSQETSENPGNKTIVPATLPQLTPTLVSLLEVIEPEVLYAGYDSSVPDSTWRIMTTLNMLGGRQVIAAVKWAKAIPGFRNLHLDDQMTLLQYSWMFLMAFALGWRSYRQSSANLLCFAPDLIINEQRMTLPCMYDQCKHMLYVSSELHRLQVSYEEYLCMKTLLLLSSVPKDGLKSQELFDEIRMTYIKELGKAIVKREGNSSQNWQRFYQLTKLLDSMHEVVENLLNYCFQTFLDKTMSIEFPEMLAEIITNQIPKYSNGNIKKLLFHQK
How it was run: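 Luciferase from a transiently transfected MMTV-LUC reporter was measured after 24 h compound exposure (≤1% DMSO) in A549 or MDA-MB-453 cells. For antagonism, the decrease of 10 nM dexamethasone-induced signal was calculated. For agonism, Emax was referenced to 300 nM dexamethasone.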

human GR = biological target: T2, human GR (Homo sapiens, UniProt P04150); test: Transrepression Assay (GITAR), TNFα-β-lactamase reporter gene in U937 cells; assay type: cell-based; settings: for GITAR Greater than by GRAMMER % SEP: GITAR Emax minus GRAMMER Emax; for EC50: inflection point, U937 cells, read-out: Transrepression U937 Cells GITAR IP
T2 construct: U937 cells contain an endogenous glucocorticoid receptor (GR); endogenous in cells; host or cells: U937 cells stably transfected with the TNF-alpha promoter/beta-lactamase reporter
T2 sequence (P04150 1-777): T1 sequence (P04150 1-777)
How it was run: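 Repression of PMA (5 ng/ml final)/LPS (100 ng/ml final)-induced TNF-α promoter activity, read as β-lactamase cleavage of CCF2-AM, in stably transfected U937 cells expressing native GR. Compound added 30-45 min before stimulation, overnight (~18 hr) 37° C; normalized to 100 nM dexamethasone (100%).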

[1] = biological target: T3, glucocorticoid receptor (GR) (Homo sapiens, UniProt P04150); test: Ligand binding assay (GR BIND), 3H-dexamethasone displacement in MDA-MB-453 cell lysate; settings: GR BIND Ki, Table 1
T3 sequence (P04150 1-777): T1 sequence (P04150 1-777)

[2] = U-937, U937 cells, activity repressed by 100 nM dexamethasone = 100%, Table 1, read-out: Transrepression U937 Cells GITAR Emax
[3] = U-937, text statement, 100 nM dexamethasone = 100%, read-out: maximal activity in the transrepression assay (GITAR)

SMILES	Emax (Glucocorticoid Receptor)	EC50 (Glucocorticoid Receptor)	GITAR Greater than by GRAMMER % SEP (human GR; Table 1)	Emax (human GR; [2])	Emax (human GR; [3])	EC50 (human GR; Table 1)	Ki [1]
CN(CCOc1ccccc1)C(=O)[C@H]1CCC2=Cc3c(cnn3-c3ccc(F)cc3)C[C@@]21C [Compound 48, (4αR,5S)-1-(4-fluorophenyl)-N,4α-dimethyl-N-(2-phenoxyethyl)-1,4,4α,5,6,7-hexahydrocyclopenta[f] indazole-5-carboxamide]	2.7%	1390 nM	20.0%	22.8%	> 5%	410 nM	7 nM
C[C@]12Cc3cnn(-c4ccc(F)cc4)c3C=C1CC[C@@H]2C(=O)N(CCc1ccccc1)Cc1ccccc1 [Compound 49, (4αR,5S)-N-benzyl-1-(4-fluorophenyl)-4α-methyl-N-(2-phenylethyl)-1,4,4,5,6,7-hexahydrocyclopenta[f]indazole-5-carboxamide]	1.5%	260 nM	10.1%	11.6%	> 5%	145 nM	1.9 nM
COc1ccccc1CN(C)C(=O)[C@H]1CCC2=Cc3c(cnn3-c3ccc(F)cc3)C[C@@]21C [Compound 50, (4αR,5S)-1-{4-fluorophenyl)-N-(2-methoxybenzyl)-N,4α-dimethyl-hexahydrocyclopenta[f]indazole-5-carboxamide]	3.4%	1460 nM	16.9%	20.3%	> 5%	226 nM	9 nM
C[C@]12Cc3cnn(-c4ccc(F)cc4)c3C=C1CC[C@@H]2C(=O)N1CCC(S(=O)(=O)c2ccccc2)CC1 [Compound 51, (4αR,5S)-1-(4-fluorophenyl)-4α-methyl-5-{[4-(phenylsulfonyl)piperidin-1-yl]carbonyl}1,4,4α,5,6,7-hexahydrocyclopenta[f]indazole]	2.9%	1190 nM	32.2%	35.1%	> 5%	1380 nM	39.5 nM
CCN(Cc1ccccc1)C(=O)[C@H]1CCC2=Cc3c(cnn3-c3ccc(F)cc3)C[C@@]21C [Compound 52, (4αR,5S}-N-benzyl-N-ethyl-1-(4-fluorophenyl)-4α-methyl-1,4,4α,5,6,7-hexahydrocyclopenta[f]indazole-5-carboxamide]	11.6%	1710 nM	21.7%	33.2%	> 5%	971 nM	2.6 nM
CC1CC(C)CN(C(=O)[C@H]2CCC3=Cc4c(cnn4-c4ccc(F)cc4)C[C@@]32C)C1 (stereo partly drawn) [Compound 53, (4αR,5S)-5-[(3,5-dimethylpiperidin-1-yl)carbonyl]-1-(4-fluorophenyl)-4α-methyl-1,4,4α,5,6,7-hexahydrocyclopenta[f]indazole]	18.3%	2290 nM	40.2%	58.4%	> 5%	2250 nM	37.4 nM
C[C@]12Cc3cnn(-c4ccc(F)cc4)c3C=C1CC[C@@H]2C(=O)N(Cc1ccccc1F)CC(O)C(F)(F)F (stereo partly drawn) [Compound 59, (4αR,5S)-N-(2-fluorobenzyl)-1-(4-fluorophenyl)-4α-methyl-N-(3,3,3-trifluoro-2-hydroxypropyl)-1,4,4α,5,6,7-hexahydrocyclopenta[f]indazole-5-carboxamide]	75.2%	117 nM	1.5%	76.7%	> 5%	91.5 nM	3.9 nM

Further molecules by falling EC50 (Glucocorticoid Receptor), results first:

Emax (Glucocorticoid Receptor)	EC50 (Glucocorticoid Receptor)	GITAR Greater than by GRAMMER % SEP (human GR; Table 1)	Emax (human GR; [2])	Emax (human GR; [3])	EC50 (human GR; Table 1)	Ki [1]	SMILES
1.6%	5000 nM	22.3%	23.9%	> 5%	3950 nM	53.5 nM	CCN(CC)C(=O)[C@H]1CCC2=Cc3c(cnn3-c3ccc(F)cc3)C[C@@]21C [Compound 55, (4αR,5S)-N,N-diethyl-1-(4-fluorophenyl)-4α-methyl-1,4,4α,5,6,7-hexahydrocyclopenta[f]indazole-5-carboxamide]
2.6%	2410 nM	12.7%	15.3%	> 5%	87.4 nM	17.6 nM	CN(Cc1cccc(C(F)(F)F)c1)C(=O)[C@H]1CCC2=Cc3c(cnn3-c3ccc(F)cc3)C[C@@]21C [Compound 46, (4αR,5S)-1-(4-fluorophenyl)-N,4α-dimethyl-N-[3-(trifluoromethyl)benzyl]-1,4,4α,5 ,6,7-hexahydrocyclopenta[f]indazole-5-carboxamide]
2.2%	2140 nM	17.1%	19.3%	> 5%	158 nM	8.7 nM	COCCN(Cc1ccc(OC)cc1)C(=O)[C@H]1CCC2=Cc3c(cnn3-c3ccc(F)cc3)C[C@@]21C [Compound 45, (4αR,5S)-1-(4-fluorophenyl)-N-(4-methoxybenzyl)-N-(2-methoxyethyl)-4α-methyl-1,4,4α,5,6,7-hexahydrocyclopenta[f]indazole-5-carboxamide]
7.4%	2020 nM	20.4%	27.8%	> 5%	1690 nM	7.1 nM	COc1cccc(CN(C)C(=O)[C@H]2CCC3=Cc4c(cnn4-c4ccc(F)cc4)C[C@@]32C)c1 [Compound 47, (4αR,5S)-1-(4-fluorophenyl)-N-(3-methoxybenzyl)-N,4α-dimethyl-1,4,4α,5,6,7-hexahydrocyclopenta[f]indazole-5-carboxamide]
3.1%	1250 nM	37.4%	40.5%	> 5%	2210 nM	32.1 nM	CC(C)CN(C)C(=O)[C@H]1CCC2=Cc3c(cnn3-c3ccc(F)cc3)C[C@@]21C [Compound 54, (4αR,5S)-1-(4-fluorophenyl)-N-isobutyl-N,4α-dimethyl-1,4,4α,5,6,7-hexahydrocyclopenta[f]indazole-5-carboxamide]
44.1%	430 nM	24.0%	68.1%	> 5%	595 nM	2.5 nM	CCCCN(CCC)C(=O)[C@H]1CCC2=Cc3c(cnn3-c3ccc(F)cc3)C[C@@]21C [Compound 56, (4αR,5S)-N-butyl-1-{4-fluorophenyl)-4α-methyl-N-propyl-1,4,4α,5,6,7-hexahydrocyclopenta[f]indazole-5-carboxamide]
3.2%	398 nM	35.3%	38.5%	> 5%	1810 nM	23.2 nM	CN(C(=O)[C@H]1CCC2=Cc3c(cnn3-c3ccc(F)cc3)C[C@@]21C)C1CCCCC1 [Compound 44, (4αR,5S)-N-cyclohexyl-1-(4-fluorophenyl)-N,4α-dimethyl-1,4,4α,5,6,7-hexahydrocyclopenta[f]indazole-5-carboxamide]
71.5%	227 nM	15.3%	86.8%	> 5%	122 nM	7.3 nM	CC(C)CN(CC(O)C(F)(F)F)C(=O)[C@H]1CCC2=Cc3c(cnn3-c3ccc(F)cc3)C[C@@]21C (stereo partly drawn) [Compound 58, (4αR,5S)-1-(4-fluorophenyl)-N-isobutyl-4α-methyl-N-(3,3,3-trifluoro-2-hydroxypropyl)-1,4,4α,5,6,7-hexahydrocyclopenta[f]indazole-5-carboxamide]
